The term IC50 denotes the concentration that inhibits the measured activity by half.

The test system of one experiment is LPA levels. To be noted: as disclosed in ACS Med. Chem. Lett. 2017, 8, 1252-1257; cited from earlier work.
The next experiment has as its target Human ATX (Homo sapiens (Human), UniProt Q13822). In words: Assay A: Biochemical ATX Assay. To be noted: recombinant ATX, 18:1 LPC substrate, 18:1 LPA formation; compounds of the invention.
The target of a further experiment is ATX in human whole blood (Homo sapiens (Human), UniProt Q13822). In words: Assay B: Whole-Blood ATX Assay. To be noted: 1 h at 37° C., 18:2 LPA formation, compounds of the invention. The format is biochemical.
The next experiment relates to plasma LPA. In words: Assay C: In Vivo, plasma LPA reduction after oral dosing. Also on record: species or system rat. To be noted: rats, 5 mg/kg, 8 hours post application. As to the method: LPA reduction in vivo is determined by measuring the plasma concentration of LPA after oral dosage of the compounds of the present invention. LPA is a very strong bioactive lipid, which efficiently activates downstream pathways via the LPA-receptors 1-6 in a concentration dependent manner. The pronounced and sustained blockage of the LPA formation via ATX inhibition is assessed by measuring the extent of LPA reduction 8 hours after compound dosage. A high reduction of plasma LPA at 8 h is therefore highly indicative for efficacy and sustained duration of action in vivo as well as sustained target engagement of the LPA receptors.
The test substance was solubilized in 0.5% natrosol supplemented with 0.015% Tween 80 for oral application to rats at a dose of 5 mg/kg. Blood samples were collected before compound administration and 8 hours post application on ice using EDTA as coagulation agent. Subsequently, plasma was prepared by centrifugation and stored until analysis at −20° C.
LPAs from plasma samples were extracted by using the procedure described by Scherer et al. (Clinical chemistry 2009, 55, 1218-22). 35 μL of heparinized plasma was mixed with 200 μL 40 mM disodium hydrogen phosphate buffer containing 30 mM citric acid (pH 4) and 1 μM 17:0 LPA (internal standard). Subsequently, 500 μL butanol was added and shaken vigorously for 10 min. Samples were centrifuged afterwards at 4000 rpm, 4° C., for 10 min. […]
A Triple Quad 6500 (ABSciex, Toronto, Canada) was equipped with an Agilent 1290 LC system (Agilent, Santa Clara, Calif.) a CTC autosampler and an Atlantis 50×2.1-mm, 3-μm HILIC LC column (Waters, Elstree, UK). […] The following LPA species were monitored (DP: declustering potential and CE: collision energy): 16:0 LPA at 409.2/152.8, DP=−150, CE=−28; 18:0 LPA at 437.3/152.8, DP=−60, CE=−28; 18:1 LPA at 435.2/152.8, DP=−40, CE=−28; 18:2 LPA at 433.2/152.8, DP=−150, CE=−28; 20:4 LPA at 457.2/152.8, DP=−100, CE=−29 and 17:0 LPA at 423.5/152.8, DP=−100, CE=−36. LPA depletion in percent was calculated based on the baseline LPA levels before test compound application. […]

The mark [1] stands for this setting: vs baseline, sum of LPA, compounds of the invention.

Protocol for ATX in human whole blood: ATX is a soluble plasma protein, which is active in heparinized whole blood. Its substrate LPC is highly abundant, its concentration being in the μM range. Therefore, a whole blood assay at physiological substrate concentrations is a highly relevant assay, predictive for the efficacy of ATX inhibitors in vivo.
45 μL human whole-blood was supplemented with 5 μL of the test compound, dissolved in phosphate-buffered saline (concentration range 0.12 nM-100 μM). This mixture was incubated for 1 h at 37° C. and stopped by addition of 100 μL 40 mM disodium hydrogen phosphate buffer containing 30 mM citric acid (pH 4) and 1 μM 17:0 LPA (internal standard). LPA was extracted by addition of 500 μL 1-butanol, followed by 10-min centrifugation at 4000 rpm, 4° C. From the resultant organic supernatant, a 200 μL aliquot was transferred into a 96-deep-well plate and transferred to the RapidFire-based MS/MS measurement.
The RapidFire autosampler was coupled to a binary pump (Agilent 1290) and a Triple Quad 6500 (ABSciex, Toronto, Canada). This system was equipped with a 10-μL loop, 5-μL Waters Atlantis HILIC cartridge (Waters, Elstree, UK), 90% acetonitrile containing 10 mM ammonium acetate as eluent A and 40% acetonitrile containing 10 mM ammoniumacetate as eluent B. For details see (Bretschneider et al., SLAS Discovery, 2017, 22, 425-432). The MS was operated in negative mode with a source temperature of 550° C., curtain gas=35, gas 1=65, and gas 2=80. The following transitions and MS parameters (DP: declustering potential and CE: collision energy) for the respective LPAs were determined: 18:2 LPA at 433.2/152.8, DP=−150, CE=−27 and 17:0 LPA at 423.5/152.8, DP=−100.
The formation of 18:2 LPA was monitored and evaluated as ratio to 17:0 LPA.
Protocol for Human ATX: 5 nM recombinant ATX (Cayman Chemicals) was supplemented to 50 mM Tris buffer (pH 8.0) containing 3 mM KCl, 1 mM CaCl2, 1 mM MgCl2 0.14 mM NaCl, and 0.1% bovine serum albumin. Test compounds were dissolved in DMSO and tested in the range of 0.1 nM to 10 μM. The enzymatic reaction (22.5 μL) was started by addition of 2.5 μL 10 μM 18:1 LPC (Avanti Lipids, Alabaster, Ala., USA). After 2-h incubation at room temperature, the reaction was stopped by addition of 20 μL water containing 500 nM 20:4 LPA as internal standard and 100 μL 1-butanol for extracting LPA. Subsequently, the plates were centrifuged at 4000 rpm, 4° C., for 2 min. The resultant upper butanol phase was directly used for injection at a RapidFire system (Agilent).
The RapidFire autosampler was coupled to a binary pump (Agilent 1290) and a Triple Quad 6500 (ABSciex, Toronto, Canada). This system was equipped with a 10-μL loop, 5 μL Waters Atlantis HILIC cartridge (Waters, Elstree, UK), 90% acetonitrile containing 10 mM ammonium acetate as eluent A and 40% acetonitrile containing 10 mM ammoniumacetate as eluent B. For details see (Bretschneider et al., SLAS Discovery, 2017). 1 The MS was operated in negative mode with a source temperature of 550° C., curtain gas=35, gas 1=65, and gas 2=80. The following transitions and MS parameters (DP: declustering potential and CE: collision energy) for the respective LPAs were determined: 18:1 LPA at 435.2/152.8, DP=−40, CE=−28 and 20:4 LPA at 457.2/152.8, DP=−100, CE=−27).
The formation of 18:1 LPA was monitored and evaluated as ratio to 20:4 LPA.

`O=C(NC[C@@H]1[C@H]2CN(C(=O)OCc3cc(C(F)(F)F)cc(C(F)(F)F)c3)C[C@@H]12)c1ccc2[nH]nnc2c1`: the “LPA levels in vivo” value in the experiment on LPA levels was “significantly reduces LPA levels in vivo”.
Take `CC(=O)N1CCN(c2ccc(CNc3ccc(OCc4cc(Cl)cc(Cl)c4)nn3)cc2)CC1` [Example 1.1, 1-[4-(4-{[6-(3,5-Dichloro-benzyloxy)-pyridazin-3-ylamino]-methyl}-phenyl)-piperazin-1-yl]-ethanone]: the IC50 turned out to be 6 nM on Human ATX and 46 nM against ATX in human whole blood.
The matching figures for `CC(=O)N1CCN(c2ccc(CNc3ccc(OCc4cncc(C#N)c4)nn3)cc2)CC1` [Example 1.2]: 2 nM and 55 nM.
The matching figures for `CC(=O)N1CCN(c2ccc(CNc3ccc(OCc4ccnc(C#N)c4)nn3)cc2)CC1` [Example 1.3]: 5 nM and 83 nM.
On to `CC(=O)N1CCN(c2ccc(CNc3ccc(OCc4cccc(C#N)c4)nn3)cc2)CC1` [Example 1.4], for which the 50% inhibitory concentration (IC50) stood at 4 nM at Human ATX and 201 nM on ATX in human whole blood. Besides, the “LPA reduction at 8 h” value in the experiment with plasma LPA (setting [1]) is listed as 95.7%.
For the compound `CC(=O)N1CCN(c2ccc(CNc3ccc(OCc4ccc(OC(F)(F)F)nc4)nn3)cc2)CC1` [Example 1.5], the IC50 at Human ATX is 4 nM; against ATX in human whole blood it was 9 nM.
As for `CC(=O)N1CCN(c2ccc(CNc3ccc(OCc4cc(C#N)cc(OC(F)(F)F)c4)nn3)cc2)CC1` [Example 1.6], the IC50 on Human ATX came to 5 nM.
Turning to `CCc1nc2c(C)cc(N3CCN(CC(=O)N4CC(O)C4)CC3)cn2c1N(C)c1nc(-c2ccc(F)cc2)c(C#N)s1` [Example 2 in WO2014/139882, reference compound], the “LPA reduction at 8 h” value with plasma LPA (prior art compounds of WO2014/139882) stood at 58.1%.
For `COc1ccc(COc2ccc(NCc3ccc(N4CCN(C(C)=O)CC4)cc3)nn2)cn1` [Example 2.1, 1-[4-(4-{[6-(6-Methoxy-pyridin-3-ylmethoxy)-pyridazin-3-ylamino]-methyl}-phenyl)-piperazin-1-yl]-ethanone], the values for the IC50 at Human ATX and against ATX in human whole blood were 3 nM and 33 nM, respectively. Moreover, the “LPA reduction at 8 h” value with plasma LPA (setting [1]) is on record as 98.3%.
`COc1ccc(COc2ccc(NCc3ccc(C4CCN(C(C)=O)CC4)cc3)nn2)cn1` [Example 2.2]: the half-inhibitory concentration (IC50) at Human ATX turned out to be 3 nM; against ATX in human whole blood, 38 nM.
In the case of `COc1cc(COc2ccc(NCc3ccc(N4CCN(C(C)=O)CC4)cc3)nn2)ccn1` [Example 2.3], the concentration for half-maximal inhibition (IC50) worked out at 8 nM at Human ATX and 186 nM at ATX in human whole blood.
The matching figures for `CC(=O)N1CCN(c2ccc(CNc3ccc(OCc4ccccc4)nn3)cc2)CC1` [Example 2.4]: 3 nM and 73 nM.
On to `CC(=O)N1CCC(c2ccc(CNc3ccc(OCc4ccccc4)nn3)cc2)CC1` [Example 2.5], for which the IC50 on Human ATX is 4 nM; at ATX in human whole blood it was 264 nM.

(Values after US11104665B2, “Pyridazines” (Boehringer Ingelheim International GmbH, priority 2018, dated 2021).)
